What all share (type): biochemical
Assay [1] addresses T1, Itk (Homo sapiens, UniProt Q08881).
T1 construct: Kinases are expressed as either kinase domains or full length constructs; made in house
T1 sequence (Q08881 1-620): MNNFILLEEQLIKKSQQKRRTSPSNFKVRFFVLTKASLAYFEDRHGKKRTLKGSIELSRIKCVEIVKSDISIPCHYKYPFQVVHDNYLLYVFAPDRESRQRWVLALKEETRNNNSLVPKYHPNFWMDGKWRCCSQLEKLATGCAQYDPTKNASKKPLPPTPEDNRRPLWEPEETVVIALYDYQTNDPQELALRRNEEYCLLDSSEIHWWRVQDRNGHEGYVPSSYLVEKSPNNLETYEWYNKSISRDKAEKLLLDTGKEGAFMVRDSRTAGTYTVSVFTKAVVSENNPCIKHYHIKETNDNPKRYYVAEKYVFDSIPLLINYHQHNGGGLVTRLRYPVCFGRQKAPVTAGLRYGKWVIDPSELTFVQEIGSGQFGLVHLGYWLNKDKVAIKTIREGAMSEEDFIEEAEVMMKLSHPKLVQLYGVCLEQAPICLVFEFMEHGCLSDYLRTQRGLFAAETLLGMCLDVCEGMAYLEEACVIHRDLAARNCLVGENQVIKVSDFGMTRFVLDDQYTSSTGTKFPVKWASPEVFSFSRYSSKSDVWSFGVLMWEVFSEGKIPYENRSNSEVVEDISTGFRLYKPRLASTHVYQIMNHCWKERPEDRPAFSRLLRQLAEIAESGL
Nature of the assay: Kinase inhibition assay (33P transfer), Itk. The note with it: Table 3, class symbols; read-out: Itk-1. In outline:
(§1)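 Steps: coat wells with poly(Glu,Tyr) 4:1 or poly(Arg,Ser) 3:1; add purified kinase, [33P]ATP and inhibitor; incubate; wash with 0.5% phosphoric acid; add liquid scintillant; count. IC50 corresponds to half-maximal reduction of bound 33P.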

Assay [2] addresses T2, c-Met (Homo sapiens, UniProt P08581).
T2 construct: Kinases are expressed as either kinase domains or full length constructs; made in house
Nature of the assay: Kinase inhibition assay (33P transfer), c-Met. The note with it: Table 2, class symbols A-E; read-out: Met-1. The method in brief:
as §1

Assay [3] addresses T3, AKT (Homo sapiens, UniProt Q9Y243).
T3 construct: Kinases are expressed as either kinase domains or full length constructs; made in house
Nature of the assay: Kinase inhibition assay (33P transfer), AKT. Conditions: Table 2, class symbols A-E; read-out: AKT3-1. In outline:
(§2)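 GST/His-tagged kinase (domain or full length; E. coli or baculovirus) + [33P]ATP on plates coated with poly(Glu,Tyr) 4:1 or poly(Arg,Ser) 3:1; incubate, wash 0.5% H3PO4, add scintillant, count.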

For assay [4], the target named is T4, ErbB2 (Homo sapiens, UniProt P04626).
T4 construct: Kinases are expressed as either kinase domains or full length constructs; made in house
Nature of the assay: Kinase inhibition assay (33P transfer), ErbB2. Conditions: read-out: ErbB2-2. The method in brief: as §1

The target in assay [5] is T5, Kdr (Homo sapiens, UniProt P35968).
T5 construct: Kinases are expressed as either kinase domains or full length constructs; made in house
Nature of the assay: Kinase inhibition assay (33P transfer), Kdr. The note with it: Table 3, class symbols; read-out: KDR-1. In outline: as §2

Assay [6] deals with T6, EGFR (Homo sapiens, UniProt P00533).
T6 construct: Kinases are expressed as either kinase domains or full length constructs; made in house
Nature of the assay: Kinase inhibition assay (33P transfer), EGFR. The note with it: Table 2, class symbols A-E; read-out: EGFR-1. The method in brief:
as §1

Assay [7] addresses T7, Lck (Homo sapiens, UniProt P06239).
T7 construct: Kinases are expressed as either kinase domains or full length constructs; made in house
Nature of the assay: Kinase inhibition assay (33P transfer), Lck. Conditions: Table 3, class symbols; read-out: Lck-1. In outline:
as §2

The target in assay [8] is T8, IGFR-1 (Homo sapiens, UniProt P08069).
T8 construct: Kinases are expressed as either kinase domains or full length constructs; made in house
Nature of the assay: Kinase inhibition assay (33P transfer), IGFR-1. Conditions: Table 2, class symbols A-E.

For assay [9], the target named is T9, Zap-70 (Homo sapiens, UniProt P43403).
T9 construct: Kinases are expressed as either kinase domains or full length constructs; made in house
T9 sequence (P43403 1-619): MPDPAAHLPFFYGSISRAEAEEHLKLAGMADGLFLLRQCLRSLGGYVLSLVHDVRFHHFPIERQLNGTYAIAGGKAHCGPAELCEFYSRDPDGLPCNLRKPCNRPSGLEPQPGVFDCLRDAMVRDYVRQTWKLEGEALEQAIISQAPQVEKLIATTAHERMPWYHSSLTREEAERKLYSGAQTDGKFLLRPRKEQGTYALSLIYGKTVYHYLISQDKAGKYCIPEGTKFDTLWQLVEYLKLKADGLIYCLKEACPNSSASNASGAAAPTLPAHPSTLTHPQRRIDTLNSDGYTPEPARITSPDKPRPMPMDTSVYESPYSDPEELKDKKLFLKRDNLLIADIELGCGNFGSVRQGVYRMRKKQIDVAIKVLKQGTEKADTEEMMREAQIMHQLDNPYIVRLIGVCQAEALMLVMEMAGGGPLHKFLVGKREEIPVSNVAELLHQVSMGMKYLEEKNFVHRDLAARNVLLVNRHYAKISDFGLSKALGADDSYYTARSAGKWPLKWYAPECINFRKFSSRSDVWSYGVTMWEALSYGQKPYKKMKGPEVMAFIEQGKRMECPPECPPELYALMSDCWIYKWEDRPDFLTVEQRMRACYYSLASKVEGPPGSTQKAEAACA
Nature of the assay: Kinase inhibition assay (33P transfer), Zap-70. Conditions: Table 3, class symbols; read-out: Zap-1. The method in brief:
as §2

In assay [10] the target is T10, PDGFRB (Homo sapiens, UniProt P09619).
T10 construct: Kinases are expressed as either kinase domains or full length constructs; made in house
Nature of the assay: Kinase inhibition assay (33P transfer), PDGFRB. Conditions: read-out: PDGFRB-1.

A value given as a limit tells only on which side of the number the result lay.

T5 sequence (P35968 20-1356, species assumed): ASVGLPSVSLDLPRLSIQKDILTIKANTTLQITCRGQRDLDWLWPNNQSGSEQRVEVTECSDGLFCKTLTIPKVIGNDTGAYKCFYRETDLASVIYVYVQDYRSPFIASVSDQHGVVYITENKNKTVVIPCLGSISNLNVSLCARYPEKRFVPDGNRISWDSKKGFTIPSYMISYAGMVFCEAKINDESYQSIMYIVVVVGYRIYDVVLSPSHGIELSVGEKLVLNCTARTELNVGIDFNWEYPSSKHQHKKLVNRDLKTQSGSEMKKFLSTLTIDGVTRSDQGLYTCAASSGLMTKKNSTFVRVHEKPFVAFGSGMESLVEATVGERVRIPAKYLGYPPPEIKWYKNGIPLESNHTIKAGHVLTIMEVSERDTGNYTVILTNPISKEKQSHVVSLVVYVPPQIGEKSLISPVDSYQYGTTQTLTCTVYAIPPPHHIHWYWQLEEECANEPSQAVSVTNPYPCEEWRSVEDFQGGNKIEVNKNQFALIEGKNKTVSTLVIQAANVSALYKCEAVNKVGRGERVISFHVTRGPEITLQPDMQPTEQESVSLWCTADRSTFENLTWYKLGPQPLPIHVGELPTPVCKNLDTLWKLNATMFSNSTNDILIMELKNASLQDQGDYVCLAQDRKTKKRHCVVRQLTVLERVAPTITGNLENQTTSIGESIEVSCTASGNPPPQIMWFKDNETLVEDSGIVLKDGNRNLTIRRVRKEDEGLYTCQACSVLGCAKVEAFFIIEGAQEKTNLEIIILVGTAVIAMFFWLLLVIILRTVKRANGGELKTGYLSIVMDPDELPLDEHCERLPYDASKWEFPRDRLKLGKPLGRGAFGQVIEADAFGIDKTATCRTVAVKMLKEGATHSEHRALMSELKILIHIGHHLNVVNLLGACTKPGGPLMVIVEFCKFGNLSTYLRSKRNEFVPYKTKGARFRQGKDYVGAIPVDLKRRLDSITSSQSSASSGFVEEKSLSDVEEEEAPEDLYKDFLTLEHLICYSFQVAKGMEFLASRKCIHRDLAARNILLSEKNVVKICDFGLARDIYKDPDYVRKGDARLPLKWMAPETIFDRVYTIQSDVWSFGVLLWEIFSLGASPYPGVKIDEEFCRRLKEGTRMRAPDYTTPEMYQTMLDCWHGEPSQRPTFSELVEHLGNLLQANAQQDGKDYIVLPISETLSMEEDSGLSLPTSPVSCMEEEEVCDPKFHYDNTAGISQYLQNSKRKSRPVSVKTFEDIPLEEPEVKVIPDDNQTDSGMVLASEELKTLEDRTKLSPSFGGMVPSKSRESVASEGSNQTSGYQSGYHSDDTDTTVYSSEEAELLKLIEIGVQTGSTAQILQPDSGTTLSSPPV
T7 sequence (P06239 whole entry, species assumed, the tested form may be a part): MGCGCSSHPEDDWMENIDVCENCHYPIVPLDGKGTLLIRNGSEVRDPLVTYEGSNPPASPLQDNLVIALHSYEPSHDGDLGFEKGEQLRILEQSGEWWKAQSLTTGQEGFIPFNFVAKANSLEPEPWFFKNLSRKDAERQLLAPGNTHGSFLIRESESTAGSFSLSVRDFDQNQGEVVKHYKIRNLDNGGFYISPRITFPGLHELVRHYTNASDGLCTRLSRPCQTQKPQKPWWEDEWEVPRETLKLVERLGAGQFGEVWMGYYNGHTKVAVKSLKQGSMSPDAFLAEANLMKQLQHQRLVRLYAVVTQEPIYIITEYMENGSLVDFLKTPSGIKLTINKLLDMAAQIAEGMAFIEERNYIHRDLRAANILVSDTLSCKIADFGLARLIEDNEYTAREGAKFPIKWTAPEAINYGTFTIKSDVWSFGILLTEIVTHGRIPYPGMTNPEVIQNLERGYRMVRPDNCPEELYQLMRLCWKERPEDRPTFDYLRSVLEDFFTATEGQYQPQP
T4 sequence (P04626 23-1255, species assumed): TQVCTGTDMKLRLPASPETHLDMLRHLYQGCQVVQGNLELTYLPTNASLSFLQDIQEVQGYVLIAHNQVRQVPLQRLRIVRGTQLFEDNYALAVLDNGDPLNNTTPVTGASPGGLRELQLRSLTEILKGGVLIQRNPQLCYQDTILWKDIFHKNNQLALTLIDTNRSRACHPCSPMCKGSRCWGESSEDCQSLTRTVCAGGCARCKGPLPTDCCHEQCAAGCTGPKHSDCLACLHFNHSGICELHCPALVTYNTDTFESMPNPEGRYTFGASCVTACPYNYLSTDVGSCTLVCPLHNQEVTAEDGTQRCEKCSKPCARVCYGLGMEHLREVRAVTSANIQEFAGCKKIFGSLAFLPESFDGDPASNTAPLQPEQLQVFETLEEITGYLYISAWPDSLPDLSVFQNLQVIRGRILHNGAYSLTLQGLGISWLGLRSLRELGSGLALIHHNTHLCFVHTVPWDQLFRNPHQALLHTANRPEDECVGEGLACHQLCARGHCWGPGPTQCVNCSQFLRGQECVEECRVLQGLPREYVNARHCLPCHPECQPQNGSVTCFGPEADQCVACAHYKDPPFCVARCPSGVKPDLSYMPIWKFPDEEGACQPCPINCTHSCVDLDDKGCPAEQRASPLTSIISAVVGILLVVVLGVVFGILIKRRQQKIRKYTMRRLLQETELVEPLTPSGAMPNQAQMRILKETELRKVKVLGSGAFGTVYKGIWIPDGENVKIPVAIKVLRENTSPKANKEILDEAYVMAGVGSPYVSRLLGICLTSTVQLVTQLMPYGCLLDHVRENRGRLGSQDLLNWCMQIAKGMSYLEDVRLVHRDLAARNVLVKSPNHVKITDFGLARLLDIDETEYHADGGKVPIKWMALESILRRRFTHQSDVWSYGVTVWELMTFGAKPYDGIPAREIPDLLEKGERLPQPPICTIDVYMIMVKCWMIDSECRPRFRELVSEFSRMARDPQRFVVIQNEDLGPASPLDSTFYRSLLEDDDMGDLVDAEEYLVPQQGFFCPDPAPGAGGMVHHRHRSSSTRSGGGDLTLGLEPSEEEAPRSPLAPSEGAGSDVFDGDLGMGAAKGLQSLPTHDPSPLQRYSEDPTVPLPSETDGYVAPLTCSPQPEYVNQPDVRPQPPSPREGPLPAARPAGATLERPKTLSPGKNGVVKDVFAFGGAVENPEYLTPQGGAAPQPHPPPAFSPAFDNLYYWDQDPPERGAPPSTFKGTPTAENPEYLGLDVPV
T3 sequence (Q9Y243 whole entry, the tested form may be a part): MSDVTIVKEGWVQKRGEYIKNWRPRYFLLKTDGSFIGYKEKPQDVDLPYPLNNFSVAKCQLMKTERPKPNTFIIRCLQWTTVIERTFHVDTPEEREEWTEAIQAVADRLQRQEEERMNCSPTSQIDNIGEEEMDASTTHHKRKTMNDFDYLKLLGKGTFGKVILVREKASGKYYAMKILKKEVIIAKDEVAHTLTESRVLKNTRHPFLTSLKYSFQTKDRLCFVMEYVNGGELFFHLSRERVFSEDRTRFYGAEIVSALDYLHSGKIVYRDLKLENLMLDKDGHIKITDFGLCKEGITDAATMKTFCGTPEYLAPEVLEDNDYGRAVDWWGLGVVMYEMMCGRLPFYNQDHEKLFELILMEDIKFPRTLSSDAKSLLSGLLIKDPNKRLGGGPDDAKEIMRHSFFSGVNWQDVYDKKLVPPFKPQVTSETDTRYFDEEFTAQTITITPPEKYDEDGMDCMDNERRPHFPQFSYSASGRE
T8 sequence (P08069 31-1367): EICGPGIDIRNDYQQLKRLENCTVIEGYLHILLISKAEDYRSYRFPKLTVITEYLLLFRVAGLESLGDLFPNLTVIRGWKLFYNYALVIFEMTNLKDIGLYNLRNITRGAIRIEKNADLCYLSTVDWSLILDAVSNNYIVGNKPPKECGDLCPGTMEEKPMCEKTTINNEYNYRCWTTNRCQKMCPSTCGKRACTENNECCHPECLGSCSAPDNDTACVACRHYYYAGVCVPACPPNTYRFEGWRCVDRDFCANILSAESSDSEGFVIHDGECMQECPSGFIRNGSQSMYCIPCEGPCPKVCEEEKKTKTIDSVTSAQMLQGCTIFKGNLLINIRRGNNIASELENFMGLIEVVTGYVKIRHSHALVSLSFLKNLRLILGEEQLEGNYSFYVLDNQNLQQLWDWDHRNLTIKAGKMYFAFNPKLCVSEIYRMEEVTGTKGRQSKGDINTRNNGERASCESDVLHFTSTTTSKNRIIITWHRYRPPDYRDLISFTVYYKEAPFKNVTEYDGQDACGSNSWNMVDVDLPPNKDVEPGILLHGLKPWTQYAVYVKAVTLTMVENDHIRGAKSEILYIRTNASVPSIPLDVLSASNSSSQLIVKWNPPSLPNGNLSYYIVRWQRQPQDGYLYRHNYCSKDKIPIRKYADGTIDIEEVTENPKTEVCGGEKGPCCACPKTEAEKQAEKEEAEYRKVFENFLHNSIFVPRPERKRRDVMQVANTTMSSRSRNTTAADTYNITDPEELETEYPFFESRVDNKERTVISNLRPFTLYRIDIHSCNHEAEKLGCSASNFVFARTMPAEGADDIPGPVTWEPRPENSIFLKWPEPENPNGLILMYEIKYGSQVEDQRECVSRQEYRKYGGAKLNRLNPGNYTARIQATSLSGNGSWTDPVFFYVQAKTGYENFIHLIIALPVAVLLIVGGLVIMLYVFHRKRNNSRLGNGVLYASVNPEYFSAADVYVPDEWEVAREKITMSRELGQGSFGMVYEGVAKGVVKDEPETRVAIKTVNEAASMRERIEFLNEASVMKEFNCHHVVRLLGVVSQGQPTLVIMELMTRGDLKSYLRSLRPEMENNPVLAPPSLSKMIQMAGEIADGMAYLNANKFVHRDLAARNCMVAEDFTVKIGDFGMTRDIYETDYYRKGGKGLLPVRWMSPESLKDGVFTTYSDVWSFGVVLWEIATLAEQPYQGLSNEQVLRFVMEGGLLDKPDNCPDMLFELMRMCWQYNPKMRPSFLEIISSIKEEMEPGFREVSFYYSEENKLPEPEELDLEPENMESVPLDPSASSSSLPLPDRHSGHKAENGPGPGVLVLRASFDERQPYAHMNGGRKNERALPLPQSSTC

For the molecule `COc1cc(Nc2ncnc(-c3cccnc3Nc3cc(Cl)cc(Cl)c3)n2)cc(OC)c1OC` [Compound 837], the IC50 in assay [1], in assay [2], in [3], in assay [4], in [5] and in assay [6] was more than 9.01 µM each time. For the same molecule, the IC50 in assay [7], in assay [8], in assay [9] and in assay [10] was more than 9.01 µM throughout.

As for `COc1cc(Nc2ncnc(Nc3cc(Cl)c(NC(=O)c4ccccc4)cc3C)n2)cc(OC)c1OC` [Compound 633], the IC50 in [1] was more than 8.64 µM; in [2], more than 8.64 µM; in [3], more than 8.64 µM; in assay [4] it was 0.768 to 4.61 µM; in assay [5] it was 6.72 to 8.64 µM; in assay [6] it was 0.768 to 4.61 µM. Besides, the IC50 is 0.768 to 4.61 µM in [7], more than 8.64 µM in assay [8], more than 8.64 µM in assay [9] and 4.61 to 6.72 µM in [10].

On to `O=C(O)c1cccc(Nc2ncnc(-n3c(NCc4ccccc4)nc4ccccc43)n2)c1` [Compound 1069], for which the IC50 is more than 10.3 µM in [1]; more than 10.3 µM in [2]; more than 10.3 µM in assay [3]; less than 0.914 µM in assay [4]; less than 0.914 µM in assay [5]; less than 0.914 µM in assay [6]. Further, the IC50 is more than 10.3 µM in assay [7], more than 10.3 µM in [8], more than 10.3 µM in assay [9] and less than 0.914 µM in assay [10].

In the case of `COC(=O)c1ccc(-c2cc(Nc3ncnc(Nc4cccc5ncccc45)n3)[nH]n2)cc1` [Compound 878], the IC50 in [1] was 7.98 to 10.3 µM; in assay [2] it was 7.98 to 10.3 µM; in assay [3], more than 10.3 µM; in assay [4] it was more than 10.3 µM; in assay [5], more than 10.3 µM; in assay [6] it was more than 10.3 µM. The IC50 in [7] was more than 10.3 µM; in assay [8], 5.47 to 7.98 µM; in assay [9], more than 10.3 µM; in assay [10], 0.912 to 5.47 µM.

With `COc1cc(Nc2ncnc(-c3cccnc3Nc3ccc(C(F)(F)F)cc3)n2)cc(OC)c1OC` [Compound 835], the IC50 in assay [1], in assay [2], in [3], in assay [4], in assay [5] and in [6] was more than 9.03 µM each time. Besides, the IC50 in assay [7], in [8], in assay [9] and in assay [10] was more than 9.03 µM throughout.

`COc1cc(Nc2ncnc(N3CCCc4c(Cl)cccc43)n2)cc(OC)c1OC` [Compound 643]: the IC50 in [1] is more than 10.5 µM; in assay [2], 0.935 to 5.61 µM; in assay [3], more than 10.5 µM; in [4], 0.935 to 5.61 µM; in assay [5], 0.935 to 5.61 µM; in assay [6], less than 0.935 µM. In addition, the IC50 in assay [7] was more than 10.5 µM; in assay [8] it was more than 10.5 µM; in [9] it was more than 10.5 µM; in assay [10], less than 0.935 µM.

On to `COc1cc(Nc2ncnc(-c3cccnc3Nc3cccc4c3CCCC4)n2)cc(OC)c1OC` [Compound 841], for which the IC50 in [1], in assay [2], in [3], in assay [4], in assay [5] and in assay [6] was more than 9.29 µM each time. For the same molecule, the IC50 in [7], in assay [8], in assay [9] and in [10] was more than 9.29 µM in each case.

On to `CN(c1ccc2c(cnn2Cc2ccccc2)c1)c1ncnc(Nc2cccc(Br)c2)n1` [Compound 667], for which the IC50 was more than 9.25 µM in assay [1]; 7.2 to 9.25 µM in assay [2]; more than 9.25 µM in assay [3]; 0.822 to 4.93 µM in assay [4]; more than 9.25 µM in [5]; less than 0.822 µM in assay [6]. Also, the IC50 in assay [7], in assay [8], in assay [9] and in [10] was more than 9.25 µM in each case.

With `COc1cc(Nc2ncnc(Nc3cc(-c4ccc(C(=O)N(C)C)cc4)n[nH]3)n2)cc(OC)c1OC` [Compound 993], the IC50 was 4.89 to 7.14 µM in [1]; less than 0.815 µM in assay [2]; more than 9.17 µM in assay [3]; 0.815 to 4.89 µM in [4]; 0.815 to 4.89 µM in assay [5]; 0.815 to 4.89 µM in assay [6]. In addition, the IC50 in assay [7] was less than 0.815 µM; in assay [8], less than 0.815 µM; in assay [9] it was more than 9.17 µM; in [10] it was 0.815 to 4.89 µM.

For the molecule `COc1ccc(Nc2ncnc(Nc3ccc(F)c(F)c3)n2)cc1OC` [Compound 794], the IC50 is 9.74 to 12.5 µM in assay [1]; 9.74 to 12.5 µM in assay [2]; more than 12.5 µM in assay [3]; 1.11 to 6.68 µM in [4]; 6.68 to 9.74 µM in [5]; 1.11 to 6.68 µM in assay [6]. Further, the IC50 is 1.11 to 6.68 µM in [7], 6.68 to 9.74 µM in assay [8], 9.74 to 12.5 µM in assay [9] and 1.11 to 6.68 µM in [10].

On to `COc1cc(Nc2ncnc(N(CCO)c3ccccc3)n2)cc(OC)c1OC` [Compound 637], for which the IC50 was more than 11.3 µM in assay [1]; 6.04 to 8.81 µM in [2]; more than 11.3 µM in assay [3]; 6.04 to 8.81 µM in [4]; 1.01 to 6.04 µM in assay [5]; less than 1.01 µM in [6]. The IC50 was 1.01 to 6.04 µM in assay [7], more than 11.3 µM in assay [8], more than 11.3 µM in assay [9] and 6.04 to 8.81 µM in assay [10].

On to `COc1cc(Nc2ncnc(-c3cccnc3NCc3ccccc3OC(F)(F)F)n2)cc(OC)c1OC` [Compound 842], for which the IC50 in assay [1] was more than 8.51 µM; in assay [2], 6.62 to 8.51 µM; in [3], more than 8.51 µM; in assay [4], 6.62 to 8.51 µM; in assay [5] it was 0.757 to 4.54 µM; in assay [6] it was more than 8.51 µM. In addition, the IC50 was more than 8.51 µM in assay [7], more than 8.51 µM in assay [8], 6.62 to 8.51 µM in assay [9] and 4.54 to 6.62 µM in [10].

As to `Brc1cccc(Nc2ncnc(Nc3cccc(Cn4ccnn4)c3)n2)c1` [Compound 961], the IC50 in [1] was 5.67 to 8.27 µM; in assay [2], more than 10.6 µM; in assay [3], more than 10.6 µM; in assay [4], less than 0.945 µM; in [5], 0.945 to 5.67 µM; in assay [6], less than 0.945 µM. In addition, the IC50 in [7] was 5.67 to 8.27 µM; in assay [8], 0.945 to 5.67 µM; in assay [9] it was more than 10.6 µM; in assay [10], 8.27 to 10.6 µM.

`COc1cc(Nc2ncnc(-c3cccnc3NC3CCCCC3)n2)cc(OC)c1OC` [Compound 848]: the IC50 in assay [1] is more than 10.3 µM; in assay [2] it was more than 10.3 µM; in assay [3], more than 10.3 µM; in assay [4], more than 10.3 µM; in [5], less than 0.916 µM; in [6], more than 10.3 µM. Besides, the IC50 is 8.02 to 10.3 µM in assay [7], more than 10.3 µM in assay [8], more than 10.3 µM in assay [9] and less than 0.916 µM in assay [10].
